Calls of active or inactive are those of the source.
Columns and labels:
Conditions in all cases: Mutu-3, dose 50.0 nM, time 48.0 hrs
[1] = biological target: Bromodomain-containing protein 4 (Homo sapiens) (UniProt O60885)
Description: Inhibition of BRD4 in human Mutu-3 cells assessed as decrease in Brd4 association in -208 cp region at 50 nM incubated for 48 hrs by CHIP analysis

[2] = biological target: Bromodomain-containing protein 4 (Homo sapiens) (UniProt O60885); remark: listed apart in the source
Description: Inhibition of BRD4 in human Mutu-3 cells assessed as decrease in Cyclin T1 association in +295 cp region at 50 nM incubated for 48 hrs by CHIP analysis

[3] = biological target: Bromodomain-containing protein 4 (Homo sapiens) (UniProt O60885); remark: listed apart in the source
Description: Inhibition of BRD4 in human Mutu-3 cells assessed as decrease in Brd4 association in +295 cp region at 50 nM incubated for 48 hrs by CHIP analysis

[4] = biological target: Bromodomain-containing protein 4 (Homo sapiens) (UniProt O60885); remark: listed apart in the source
Description: Inhibition of BRD4 in human Mutu-3 cells assessed as decrease in Cp-initiated EBNA 1 transcription at 50 nM incubated for 48 hrs by Q-PCR analysis relative to control

[5] = biological target: Bromodomain-containing protein 4 (Homo sapiens) (UniProt O60885); remark: listed apart in the source
Description: Inhibition of BRD4 in human Mutu-3 cells assessed as decrease in Brd4 association in -40 cp region at 50 nM incubated for 48 hrs by CHIP analysis

[6] = biological target: Bromodomain-containing protein 4 (Homo sapiens) (UniProt O60885); remark: listed apart in the source
Description: Inhibition of BRD4 in human Mutu-3 cells assessed as decrease in CDK9 association in -40 cp region at 50 nM incubated for 48 hrs by CHIP analysis

[7] = biological target: Bromodomain-containing protein 4 (Homo sapiens) (UniProt O60885); remark: listed apart in the source
Description: Inhibition of BRD4 in human Mutu-3 cells assessed as decrease in CDK9 association in -208 cp region at 50 nM incubated for 48 hrs by CHIP analysis

[8] = biological target: Bromodomain-containing protein 4 (Homo sapiens) (UniProt O60885); remark: listed apart in the source
Description: Inhibition of BRD4 in human Mutu-3 cells assessed as decrease in CDK9 association in +48 cp region at 50 nM incubated for 48 hrs by CHIP analysis

[9] = biological target: Bromodomain-containing protein 4 (Homo sapiens) (UniProt O60885); remark: listed apart in the source
Description: Inhibition of BRD4 in human Mutu-3 cells assessed as decrease in Cyclin T1 association in -208 cp region at 50 nM incubated for 48 hrs by CHIP analysis

[10] = biological target: Bromodomain-containing protein 4 (Homo sapiens) (UniProt O60885); remark: listed apart in the source
Description: Inhibition of BRD4 in human Mutu-3 cells assessed as decrease in Brd4 association in +48 cp region at 50 nM incubated for 48 hrs by CHIP analysis

[11] = biological target: Bromodomain-containing protein 4 (Homo sapiens) (UniProt O60885); remark: listed apart in the source
Description: Inhibition of BRD4 in human Mutu-3 cells assessed as decrease in Cp-initiated LMP1 transcription at 50 nM incubated for 48 hrs by Q-PCR analysis relative to control

[12] = biological target: Bromodomain-containing protein 4 (Homo sapiens) (UniProt O60885); remark: listed apart in the source
Description: Inhibition of BRD4 in human Mutu-3 cells assessed as decrease in Cyclin T1 association in -40 cp region at 50 nM incubated for 48 hrs by CHIP analysis

[13] = biological target: Bromodomain-containing protein 4 (Homo sapiens) (UniProt O60885); remark: listed apart in the source
Description: Inhibition of BRD4 in human Mutu-3 cells assessed as decrease in CDK9 association in +295 cp region at 50 nM incubated for 48 hrs by CHIP analysis

[14] = biological target: Bromodomain-containing protein 4 (Homo sapiens) (UniProt O60885); remark: listed apart in the source
Description: Inhibition of BRD4 in human Mutu-3 cells assessed as decrease in Cp-initiated EBNA 2 transcription at 50 nM incubated for 48 hrs by Q-PCR analysis relative to control

[15] = biological target: Bromodomain-containing protein 4 (Homo sapiens) (UniProt O60885); remark: listed apart in the source
Description: Inhibition of BRD4 in human Mutu-3 cells assessed as decrease in Cyclin T1 association in +48 cp region at 50 nM incubated for 48 hrs by CHIP analysis

Measured: inhibition

Cc1sc2c(c1C)C(c1ccc(Cl)cc1)=N[C@@H](CC(=O)OC(C)(C)C)c1nnc(C)n1-2
74%: [14]
65%: [4]
inactive: [11]
active: all other assays above
